Laboratory results: paper PMC11288129, “Diversely evolved xibalbin variants from remipede venom inhibit potassium channels and activate PKA-II and Erk1/2 signaling” (BMC Biology, 2024)
Positions of bridges follow the written chain, without caps; N, C: chain ends. No end group written: not given here.

Experiments:
rKv1.6 = test: TEVC inhibition, Kv1.6; format: cell-based, rat; settings: 1 µM
Excerpt: For the expression of Kv channels rat Kv1.1 (GenBank accession number: NM_173095 [88, 89]), rKv1.2 (NM_012970 [90, 91]), human Kv1.3 (NM_002232 [92, 93]), rKv1.4 (NM_012971 [94, 95]), rKv1.6 (NM_023954 [96, 97]), hKv2.1 (NM_004975 [98, 99]), hKv3.1 (NM_004976 [100, 101]), rKv4.2 (NM_031739 [102, 103]), hKv10.1 (NM_172362 [104, 105]), hERG1 [Kv11.1, (NM_000238 [106, 107])], and Shaker IR [from Drosophila melanogaster, (NM_167595 [108, 109])], Nav channels [rNav1.2 (NM_012647 [42, 110]), rNav1.4 (NM_013178 [111, 112]), hNav1.5 (NM_198056 [113, 114]), mNav1.6 (NM_001077499 [115, 116]), BgNav [from Blattella germanica, (DQ466887 [117, 118])] and the auxiliary subunits rβ1 (NM_001271045 [119, 120]), hβ1 (NM_001037 [121, 122]), and TipE [from D. melanogaster, (NM_079196 [109, 123])], and Cav channels hCav3.1 [124, 125], hCav3.2 [126, 127], and hCav3.3 [128, 129] in Xenopus oocytes, the linearized plasmids were transcribed using the T7 or SP6 mMESSAGEmMACHINE transcription kit (Ambion, Austin, TX, USA). Mature female animals were purchased from Nasco (Fort Atkinson, USA) and were housed in the Aquatic Facility (KU Leuven) in compliance with the regulations of the European Union (EU) concerning the welfare of laboratory animals as declared in Directive 2010/63/EU. The use of X. laevis oocytes was approved by the Animal Ethics Committee of the KU Leuven with the license number P186/2019. Stage V–VI oocytes were collected from anesthetized female X. laevis frog as previously described, with the frogs anesthetized by placement in 0.1% tricaine solution (amino benzoic acid ethyl ester; Merck, USA). Oocyte microinjection was performed using a microinjector (Drummond Scientifc®, USA), with a programmed cRNA injection volume of 4—50 nL, depending on the channel subtype. The oocytes were incubated in ND96 solution (96 mM NaCl, 2 mM KCl, 1.8 mM CaCl2, 2 mM MgCl2, and 5 mM HEPES, pH 7.4), supplemented with 50 mg/l gentamicin sulfate.
Electrophysiological measurements were performed at room temperature (18–22 °C) using the two-electrode voltage clamp (TEVC) technique. Data were obtained using a GeneClamp 500 amplifier (Axon Instruments, USA), and Clampex9 software (Axon Instruments), responsible for data acquisition and storage. Glass micropipettes were produced using glass capillaries (borosilicate WPI 1B120-6) and drawn in a WPI (World Precision Instruments, USA) manual stretcher. The bath and perfusion solutions were either the previously described ND96 (Nav and Kv channels) or calcium-free ND96 supplemented with 10 mM BaCl2 (Cav channels).
Whole-cell currents of oocytes were recorded 1 to 3 days after injection. Current and voltage electrodes were filled with 3 M KCl and their resistance was adjusted from 0.7 to 2.0 MΩ. Currents were sampled at 20 kHz (Nav channels) and 10 kHz (Kv and Cav channels) and filtered using a four-pole Bessel low-pass Bessel filter, at 1 kHz for sodium, and […] for potassium and calcium, except for the hERG ion channel, in which the currents were filtered at 1 kHz. Leak subtraction was performed using a -P/4 protocol. Kv1.x currents were evoked by 500 ms depolarizations to 0 mV followed by a 500-ms pulse to − 50 mV, from a holding potential of − 90 mV. Kv2.1, Kv3.1, and Kv4.2 currents were elicited by 500 ms pulses to + 20 mV from a holding potential of − 90 mV. Current traces of Kv10.1 were elicited by 2 s depolarization to 0 mV, from a holding potential of − 90 mV. Current traces of hERG1 channel were elicited by applying a + 40 mV prepulse for 2 s followed by a step of − 120 mV for 2 s. Sodium current traces were evoked by a 100 ms depolarization to 0 mV, from a holding potential of − 90 mV. The current–voltage (IV) relationships were determined by 100-ms step depolarizations between − 90 and + 40 mV, using 5 mV increments. […]

[1] = test system: THP-1 cell adhesion to HMECs; test: Adhesion of THP-1 leukocytes onto TNF-activated endothelial cells; format: cell-based, human; settings: 25 µg/ml
Method: Nitric oxide has a complex and diverse role in pain modulation. […] Finally, we analyzed the effects of xibalbins on the leukocyte adhesion to the vascular endothelium, which is a critical step in the inflammatory response of inflamed tissues. Xibalbins were analyzed for their ability to alter the adhesion of human monocytic (THP-1) cells onto a TNF-activated endothelial cell monolayer (Additional File 5: Figure S4). […] All individual values for these experiments are given in Additional File 8: Table S3.
Supplementary file 12915_2024_1955_MOESM5_ESM.jpg: Additional file 5: Figure S4. Effects of xibalbins on cytotoxicity in RAW264.7 macrophages and adhesion of leukocytes onto the vascular endothelium. (i) For the viability assay, RAW264.7 cells were treated with 25 μg/ml concentrations of xibalbins for 24 h. Cells were incubated with WST-8 and the formed formazan was detected by absorbance measurements. (ii) For the proliferation assay, HMEC-1 cells were grown in low density and treated after 24 h with the indicated peptide for 72 h. Cells were stained with crystal violet solution. The amount of DNA-bound crystal violet was detected by absorbance measurements. […] The adhesion of leukocytes onto endothelial cells was quantified by fluorescence measurements using a Tecan Infinite F200 Pro microplate reader (Tecan, Männedorf, Switzerland) (excitation: 485 nm, emission: 535 nm). […]

rNav1.2 = test: TEVC inhibition, Nav1.2; format: cell-based, rat; settings: 1 µM, Xenopus oocytes, ND96, 18–22 °C, mean ± SEM, n ≥ 3
Excerpt: For the expression of Kv channels rat Kv1.1 (GenBank accession number: NM_173095 [88, 89]), rKv1.2 (NM_012970 [90, 91]), human Kv1.3 (NM_002232 [92, 93]), rKv1.4 (NM_012971 [94, 95]), rKv1.6 (NM_023954 [96, 97]), hKv2.1 (NM_004975 [98, 99]), hKv3.1 (NM_004976 [100, 101]), rKv4.2 (NM_031739 [102, 103]), hKv10.1 (NM_172362 [104, 105]), hERG1 [Kv11.1, (NM_000238 [106, 107])], and Shaker IR [from Drosophila melanogaster, (NM_167595 [108, 109])], Nav channels [rNav1.2 (NM_012647 [42, 110]), rNav1.4 (NM_013178 [111, 112]), hNav1.5 (NM_198056 [113, 114]), mNav1.6 (NM_001077499 [115, 116]), BgNav [from Blattella germanica, (DQ466887 [117, 118])] and the auxiliary subunits rβ1 (NM_001271045 [119, 120]), hβ1 (NM_001037 [121, 122]), and TipE [from D. melanogaster, (NM_079196 [109, 123])], and Cav channels hCav3.1 [124, 125], hCav3.2 [126, 127], and hCav3.3 [128, 129] in Xenopus oocytes, the linearized plasmids were transcribed using the T7 or SP6 mMESSAGEmMACHINE transcription kit (Ambion, Austin, TX, USA). […]
Whole-cell currents of oocytes were recorded 1 to 3 days after injection. […] The current–voltage (IV) relationships were determined by 100-ms step depolarizations between − 90 and + 40 mV, using 5 mV increments. […]

Sequence	Inhibition data, Kv1.6 (rKv1.6; replicate 1)	Inhibition data, Kv1.6 (rKv1.6; replicate 2)	Inhibition data, Kv1.6 (rKv1.6; replicate 3)	Prevention of Leukocyte Adh. on HMEC-1 [1]	inhibition of Nav1.2 (rNav1.2)	Inhibition data, Kv1.6 (rKv1.6; replicate 4)
KRSCIRRFGRCDHRPNDCCYNSSCRCNLWGSNCRCQRMGLFQKWGK (disulfide 4-19, 11-24, 18-35, 26-33) [xib13]	81.2	87.8	79.9	106.6	15.6 ± 2.6%	–
RLFCIRHHKYCGHRPKRCCSGLFCRCNTFGTNCRCQSKGALGKLI (disulfide 4-19, 11-24, 18-35, 26-33) [xib1]	80.8	59.7	81.8	–	–	80.2
